Reference: US12173001B1, “Pyrido[3,4-e][1,2,4]triazolo[4,3-c]pyrimidines as CK2 inhibitors” (King Faisal University, priority 2024, dated 2024)

Assays:
MDA-MB-231 (breast) = assay: In vitro cytotoxic activity (MTT) assay, MDA-MB-231; type: cell-based; conditions: Homo sapiens, cells exposed for 96 hours, read-out: Cytotoxicity activity IC50 (50% inhibition of cell proliferation)
Description: (§1) Compounds 1-16 were screened for their in vitro cytotoxic activity utilizing a 3-(4,5-dimethyl-thiazol-2-yl)-2,5-diphenyltetrazolium bromide (MTT) assay against selected cancer human cell lines consisting of PC3 (prostate), HCT116 (colon), A375 (melanoma), H1299 (lung), MIAPaCa-2 (pancreas), HL60 (leukemia), MCF7 (breast), MDA-MB-231 (breast) (T. Mosmann, J. Immunol. Meth., 1983, 65, 55-63). The cells were cultured at 37° C. in RMPI1640 medium supplemented with 10% fetal bovine serum, 50 IU/mL penicillin, and […] streptomycin in a 5% CO2 incubator. All cells were sub-cultured 3 times/week by trypsinization. Viable cells were seeded and allowed to adhere for 12 hours before a test drug was added in 96-well plates at an initial density of 1.0×10^5 cells/mL. Tumor cell lines were separately exposed to various concentrations of the tested compounds followed by incubation at a temperature of 37° C. during 96 hours inside a medium of fresh RMPI 1640. Cells were subsequently incubated at 37° C. using MTT at 0.5 mg/mL during 4 hours. After removal of supernatant, formazan crystals were dissolved in isopropanol and the optical density was measured at 570 nm. CX-4945 was used as a positive control.

H1299 (lung) = assay: In vitro cytotoxic activity (MTT) assay, H1299; type: cell-based; conditions: Homo sapiens, NCI-H1299, cells exposed for 96 hours, read-out: Cytotoxicity activity IC50 (50% inhibition of cell proliferation)
Description: as §1

MIAPaCa-2 (pancreas) = assay: In vitro cytotoxic activity (MTT) assay, MIAPaCa-2; type: cell-based; conditions: Homo sapiens, MIA PaCa-2, cells exposed for 96 hours, read-out: Cytotoxicity activity IC50 (50% inhibition of cell proliferation)
Description: as §1

recombinant human CK2 = target: T1, recombinant human CK2 (Homo sapiens, UniProt P68400); assay: CK2 Kinase Assay (33P-ATP, filter plate); type: biochemical; conditions: final ATP concentration 15 μM, 10 min at 30° C.; read-out: protein kinase CK2 activity IC50
T1 construct: purchased Millipore
Description: CK2 Kinase Assay was conducted using the protocol as described in Pierre F. et al; J. Med. Chem. 2011, 54, 635-654. The tested compounds in aqueous solution were added at a volume of 10 μL to a reaction mixture comprising 10 μL of assay dilution buffer (ADB; 20 mM MOPS, pH 7.2, 25 mM β-glycerol phosphate, 5 mM EGTA, 1 mM sodium orthovanadate, and 1 mM dithiothreitol), 10 μL of substrate peptide (RRRDDDSDDD (SEQ 1), dissolved in ADB at a concentration of 1 mM), 10 μL of recombinant human CK2 (RROP-holoenzyme, 25 ng dissolved in ADB; Millipore). Reactions were initiated by the addition of 10 μL of ATP solution (90% 75 mMMgCl2, 75 μM ATP (final ATP concentration: 15 μM) dissolved in ADB; 10% [γ-33P] ATP (stock 1mCi/100 μL; 3000 Ci/mmol (Perkin-Elmer) and maintained for 10 min at 30° C. The reactions were quenched with 100 μL of 0.75% phosphoric acid and then transferred to and filtered through a phosphor cellulose filter plate (Millipore). After washing each well five times with 0.75% phosphoric acid, the plate was dried under vacuum for 5 min and, following the addition of 15 μL of scintillation fluid to each well, the residual radioactivity was measured using a Wallac luminescence counter. The IC50 values were derived from eight concentrations of test inhibitors.

HCT116 (colon) = assay: In vitro cytotoxic activity (MTT) assay, HCT116; type: cell-based; conditions: Homo sapiens, HCT-116, cells exposed for 96 hours, read-out: Cytotoxicity activity IC50 (50% inhibition of cell proliferation)
Description: as §1

MCF7 (breast) = assay: In vitro cytotoxic activity (MTT) assay, MCF7; type: cell-based; conditions: Homo sapiens, cells exposed for 96 hours, read-out: Cytotoxicity activity IC50 (50% inhibition of cell proliferation)
Description: as §1

A375 (melanoma) = assay: In vitro cytotoxic activity (MTT) assay, A375; type: cell-based; conditions: Homo sapiens, A-375, cells exposed for 96 hours, read-out: Cytotoxicity activity IC50 (50% inhibition of cell proliferation)
Description: as §1

PC3 (prostate) = assay: In vitro cytotoxic activity (MTT) assay, PC3; type: cell-based; conditions: Homo sapiens, Prostate cell, cells exposed for 96 hours, read-out: Cytotoxicity activity IC50 (50% inhibition of cell proliferation)
Description: as §1

HL60 (leukemia) = assay: In vitro cytotoxic activity (MTT) assay, HL60; type: cell-based; conditions: Homo sapiens, HL-60, cells exposed for 96 hours, read-out: Cytotoxicity activity IC50 (50% inhibition of cell proliferation)
Description: as §1

T1 sequence (P68400 whole entry): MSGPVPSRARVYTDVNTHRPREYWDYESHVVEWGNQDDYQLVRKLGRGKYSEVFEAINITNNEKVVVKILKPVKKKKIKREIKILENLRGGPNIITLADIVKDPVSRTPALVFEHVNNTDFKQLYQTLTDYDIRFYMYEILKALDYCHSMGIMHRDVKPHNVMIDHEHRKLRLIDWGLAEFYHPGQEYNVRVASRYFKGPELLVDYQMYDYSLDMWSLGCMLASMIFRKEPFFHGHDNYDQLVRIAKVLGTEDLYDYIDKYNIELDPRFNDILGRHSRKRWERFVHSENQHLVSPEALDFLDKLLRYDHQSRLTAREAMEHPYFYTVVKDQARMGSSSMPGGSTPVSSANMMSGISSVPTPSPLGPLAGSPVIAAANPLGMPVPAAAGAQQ
T1 sequence (P67870 whole entry partner): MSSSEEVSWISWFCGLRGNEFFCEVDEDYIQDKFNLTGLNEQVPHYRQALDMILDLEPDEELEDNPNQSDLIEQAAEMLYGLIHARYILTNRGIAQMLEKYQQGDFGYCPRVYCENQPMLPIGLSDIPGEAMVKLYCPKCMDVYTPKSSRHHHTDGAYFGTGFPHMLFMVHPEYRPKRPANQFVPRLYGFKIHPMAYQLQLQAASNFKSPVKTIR

How did the IC50 (MDA-MB-231 (breast)) turn out when `O=C(O)c1nnc2c3cnccc3nc(Nc3cccc(Cl)c3)n12` [Compound 1, 5-((3-chlorophenyl)amino)pyrido[3,4-e][1,2,4]triazolo[4,3-c]pyrimidine-3-carboxylic acid] was run?
The IC50 was 4.5 µM.

And the IC50 (H1299 (lung))?
Its IC50 is 3.1 µM.

And the IC50 (MIAPaCa-2 (pancreas))?
The IC50 was 1.3 µM.

And the IC50 (recombinant human CK2)?
Its IC50 is 0.032 µM.

What about the IC50 (HCT116 (colon)) of the same compound?
Its IC50 is 2.8 µM.

What about the IC50 (MCF7 (breast)) of the same compound?
The IC50 was 4.9 µM.

And the IC50 (A375 (melanoma))?
The IC50 was 5.4 µM.

What about the IC50 (PC3 (prostate)) of the same compound?
The IC50 was 1.5 µM.

What about the IC50 (HL60 (leukemia)) of the same compound?
Its IC50 is 5.8 µM.
